Reference: US12522583B2, “Benzimidazole derivatives and aza-benzimidazole derivatives as Janus kinase 2 inhibitors and uses thereof” (Dana-Farber Cancer Institute, Inc., priority 2018, dated 2026)
pIC50: −log10 of the molar value.

Assays:
[1] = target: JAK2 (Homo sapiens (Human), UniProt O60674); assay: JAK2 Z-Lyte biochemical assay
Protocol: Example 3. JAK2 Z-Lyte Biochemical Assay of the Compounds of the Present Disclosure
The JAK2 Z-Lyte biochemical assay was performed according to manufacturer's instructions (Life Technologies).

[2] = target: EPHB2 (Homo sapiens (Human), UniProt P29323); assay: KINOMEscan; type: binding; conditions: read-out: percent control
Source text: (§1) Example 2. In Vitro Kinase Selectivity Profiling of the Compounds of the Present Disclosure

[3] = target: ALK(L1196M) (Homo sapiens (Human), UniProt Q9UM73, L1196M); assay: KINOMEscan; type: binding; conditions: read-out: percent control
Source text: as §1

[4] = target: LKB1 (Homo sapiens (Human), UniProt Q15831); assay: KINOMEscan; type: binding; conditions: read-out: percent control
Source text: as §1

[5] = target: FLT1 (Homo sapiens (Human), UniProt P17948); assay: KINOMEscan; type: binding; conditions: read-out: percent control
Source text: as §1

[6] = target: ABL1(F317I)-nonphosphorylated (Homo sapiens (Human), UniProt P00519, F317I); assay: KINOMEscan; type: binding; conditions: read-out: percent control
Source text: as §1

[7] = target: CDC2L5 (Homo sapiens (Human), UniProt Q14004); assay: KINOMEscan; type: binding; conditions: read-out: percent control
Source text: as §1

[8] = target: CAMK1G (Homo sapiens (Human), UniProt Q96NX5); assay: KINOMEscan; type: binding; conditions: read-out: percent control
Source text: as §1

[9] = target: PIM3 (Homo sapiens (Human), UniProt Q86V86); assay: KINOMEscan; type: binding; conditions: read-out: percent control
Source text: as §1

[10] = target: PDGFRB (Homo sapiens (Human), UniProt P09619); assay: KINOMEscan; type: binding; conditions: read-out: percent control
Source text: as §1

[11] = target: GSK3B (Homo sapiens (Human), UniProt P49841); assay: KINOMEscan; type: binding; conditions: read-out: percent control
Source text: as §1

[12] = target: PRKCQ (Homo sapiens (Human), UniProt Q04759); assay: KINOMEscan; type: binding; conditions: read-out: percent control
Source text: as §1

[13] = target: PRKD2 (Homo sapiens (Human), UniProt Q9BZL6); assay: KINOMEscan; type: binding; conditions: read-out: percent control
Source text: as §1

[14] = target: STK33 (Homo sapiens (Human), UniProt Q9BYT3); assay: KINOMEscan; type: binding; conditions: read-out: percent control
Source text: as §1

[15] = target: WNK4 (Homo sapiens (Human), UniProt Q96J92); assay: KINOMEscan; type: binding; conditions: read-out: percent control
Source text: as §1

[16] = tested on: FLT3(ITD); assay: KINOMEscan; type: binding; conditions: 1 μM
Source text: as §1

[17] = target: HASPIN (Homo sapiens (Human), UniProt Q8TF76); assay: KINOMEscan; type: binding; conditions: read-out: percent control
Source text: as §1

[18] = target: CDK2 (Homo sapiens (Human), UniProt P24941); assay: KINOMEscan; type: binding; conditions: read-out: percent control
Source text: as §1

[19] = target: GRK1 (Homo sapiens (Human), UniProt Q15835); assay: KINOMEscan; type: binding; conditions: read-out: percent control
Source text: as §1

[20] = target: CAMK2A (Homo sapiens (Human), UniProt Q9UQM7); assay: KINOMEscan; type: binding; conditions: read-out: percent control
Source text: as §1

[21] = target: PIK3CA(E545K) (Homo sapiens (Human), UniProt P42336, E545K); assay: KINOMEscan; type: binding; conditions: read-out: percent control
Source text: as §1

[22] = target: WEE2 (Homo sapiens (Human), UniProt P0C1S8); assay: KINOMEscan; type: binding; conditions: read-out: percent control
Source text: as §1

[23] = target: NDR2 (Homo sapiens (Human), UniProt Q9Y2H1); assay: KINOMEscan; type: binding; conditions: read-out: percent control
Source text: as §1

[24] = target: ACVRL1 (Homo sapiens (Human), UniProt P37023); assay: KINOMEscan; type: binding; conditions: read-out: percent control
Source text: as §1

[25] = tested on: FLT3(ITD, F691L); assay: KINOMEscan; type: binding; conditions: 1 μM
Source text: as §1

[26] = target: S6K1 (Homo sapiens (Human), UniProt P23443); assay: KINOMEscan; type: binding; conditions: read-out: percent control
Source text: as §1

[27] = target: CDC2L1 (Homo sapiens (Human), UniProt P21127); assay: KINOMEscan; type: binding; conditions: read-out: percent control
Source text: as §1

[28] = target: MYO3B (Homo sapiens (Human), UniProt Q8WXR4); assay: KINOMEscan; type: binding; conditions: read-out: percent control
Source text: as §1

[29] = target: EGFR(L858R, T790M) (Homo sapiens (Human), UniProt P00533, L858R/T790M); assay: KINOMEscan; type: binding; conditions: read-out: percent control
Source text: as §1

[30] = target: MAP3K15 (Homo sapiens (Human), UniProt Q6ZN16); assay: KINOMEscan; type: binding; conditions: read-out: percent control
Source text: as §1

[31] = target: EPHA4 (Homo sapiens (Human), UniProt P54764); assay: KINOMEscan; type: binding; conditions: read-out: percent control
Source text: as §1

[32] = target: MST3 (Homo sapiens (Human), UniProt Q9Y6E0); assay: KINOMEscan; type: binding; conditions: read-out: percent control
Source text: as §1

[33] = target: TRKB (Homo sapiens (Human), UniProt Q16620); assay: KINOMEscan; type: binding; conditions: read-out: percent control
Source text: as §1

[34] = target: CHEK2 (Homo sapiens (Human), UniProt O96017); assay: KINOMEscan; type: binding; conditions: read-out: percent control
Source text: as §1

[35] = target: FES (Homo sapiens (Human), UniProt P07332); assay: KINOMEscan; type: binding; conditions: read-out: percent control
Source text: as §1

[36] = target: MERTK (Homo sapiens (Human), UniProt Q12866); assay: KINOMEscan; type: binding; conditions: read-out: percent control
Source text: as §1

[37] = target: ROS1 (Homo sapiens (Human), UniProt P08922); assay: KINOMEscan; type: binding; conditions: read-out: percent control
Source text: as §1

[38] = target: EGFR(S752-I759del) (Homo sapiens (Human), UniProt P00533, DEL752-759); assay: KINOMEscan; type: binding; conditions: read-out: percent control
Source text: as §1

[39] = target: PIK3CA (Homo sapiens (Human), UniProt P42336); assay: KINOMEscan; type: binding; conditions: read-out: percent control
Source text: as §1

[40] = target: MKK7 (Homo sapiens (Human), UniProt O14733); assay: KINOMEscan; type: binding; conditions: read-out: percent control
Source text: as §1

Chain of EGFR(L858R, T790M) (P00533 25-1210 T790M/L858R): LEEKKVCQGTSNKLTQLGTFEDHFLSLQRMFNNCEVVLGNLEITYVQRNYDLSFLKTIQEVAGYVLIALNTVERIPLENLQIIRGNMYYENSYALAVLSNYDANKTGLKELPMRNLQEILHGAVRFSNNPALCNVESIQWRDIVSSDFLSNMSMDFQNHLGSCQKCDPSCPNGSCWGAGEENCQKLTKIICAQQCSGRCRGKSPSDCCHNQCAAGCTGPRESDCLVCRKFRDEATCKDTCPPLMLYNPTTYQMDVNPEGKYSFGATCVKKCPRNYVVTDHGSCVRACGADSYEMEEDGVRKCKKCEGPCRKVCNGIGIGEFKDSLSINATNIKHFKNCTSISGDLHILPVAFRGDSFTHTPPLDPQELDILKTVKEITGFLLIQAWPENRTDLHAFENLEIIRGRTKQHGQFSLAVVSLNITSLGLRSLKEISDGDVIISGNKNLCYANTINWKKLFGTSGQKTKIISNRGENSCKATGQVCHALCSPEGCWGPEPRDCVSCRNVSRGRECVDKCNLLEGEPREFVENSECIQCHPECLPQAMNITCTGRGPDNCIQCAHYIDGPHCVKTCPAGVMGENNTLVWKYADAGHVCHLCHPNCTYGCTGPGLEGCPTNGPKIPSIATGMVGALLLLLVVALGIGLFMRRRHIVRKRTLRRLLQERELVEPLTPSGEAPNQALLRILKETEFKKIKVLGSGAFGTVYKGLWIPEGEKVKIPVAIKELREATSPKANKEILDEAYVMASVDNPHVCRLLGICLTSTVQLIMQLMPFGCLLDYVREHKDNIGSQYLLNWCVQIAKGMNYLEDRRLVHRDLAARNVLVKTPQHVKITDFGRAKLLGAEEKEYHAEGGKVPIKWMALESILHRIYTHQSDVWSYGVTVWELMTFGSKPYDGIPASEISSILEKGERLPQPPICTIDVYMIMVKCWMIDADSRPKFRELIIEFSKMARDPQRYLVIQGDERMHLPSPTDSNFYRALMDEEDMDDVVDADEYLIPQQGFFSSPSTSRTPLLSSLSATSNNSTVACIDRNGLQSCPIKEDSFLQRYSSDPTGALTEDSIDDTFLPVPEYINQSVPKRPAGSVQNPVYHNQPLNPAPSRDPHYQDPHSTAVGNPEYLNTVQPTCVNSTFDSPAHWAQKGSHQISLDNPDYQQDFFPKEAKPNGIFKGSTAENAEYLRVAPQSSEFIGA
Chain of CDC2L1 (P21127 whole entry): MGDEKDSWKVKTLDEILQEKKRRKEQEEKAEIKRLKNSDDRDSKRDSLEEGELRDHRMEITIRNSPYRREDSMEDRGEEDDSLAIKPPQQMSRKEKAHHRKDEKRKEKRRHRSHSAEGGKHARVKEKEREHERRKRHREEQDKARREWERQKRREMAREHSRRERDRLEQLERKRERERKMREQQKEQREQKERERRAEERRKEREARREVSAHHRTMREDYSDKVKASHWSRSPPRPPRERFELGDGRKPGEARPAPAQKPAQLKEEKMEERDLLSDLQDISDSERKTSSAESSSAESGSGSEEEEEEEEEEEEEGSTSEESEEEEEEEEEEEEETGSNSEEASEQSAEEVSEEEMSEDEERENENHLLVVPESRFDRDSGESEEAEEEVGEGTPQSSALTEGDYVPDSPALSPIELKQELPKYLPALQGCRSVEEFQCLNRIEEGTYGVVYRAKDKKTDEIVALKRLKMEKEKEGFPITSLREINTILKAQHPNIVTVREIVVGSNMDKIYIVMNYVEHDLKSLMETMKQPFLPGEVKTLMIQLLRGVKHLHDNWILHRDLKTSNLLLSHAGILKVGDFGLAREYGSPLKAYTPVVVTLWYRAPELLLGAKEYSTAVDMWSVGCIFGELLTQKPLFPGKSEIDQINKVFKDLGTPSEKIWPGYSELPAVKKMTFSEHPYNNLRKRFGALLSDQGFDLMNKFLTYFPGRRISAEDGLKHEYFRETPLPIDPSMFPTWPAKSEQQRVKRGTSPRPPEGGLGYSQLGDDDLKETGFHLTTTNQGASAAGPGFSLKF
Chain of FLT1 (P17948 27-1338): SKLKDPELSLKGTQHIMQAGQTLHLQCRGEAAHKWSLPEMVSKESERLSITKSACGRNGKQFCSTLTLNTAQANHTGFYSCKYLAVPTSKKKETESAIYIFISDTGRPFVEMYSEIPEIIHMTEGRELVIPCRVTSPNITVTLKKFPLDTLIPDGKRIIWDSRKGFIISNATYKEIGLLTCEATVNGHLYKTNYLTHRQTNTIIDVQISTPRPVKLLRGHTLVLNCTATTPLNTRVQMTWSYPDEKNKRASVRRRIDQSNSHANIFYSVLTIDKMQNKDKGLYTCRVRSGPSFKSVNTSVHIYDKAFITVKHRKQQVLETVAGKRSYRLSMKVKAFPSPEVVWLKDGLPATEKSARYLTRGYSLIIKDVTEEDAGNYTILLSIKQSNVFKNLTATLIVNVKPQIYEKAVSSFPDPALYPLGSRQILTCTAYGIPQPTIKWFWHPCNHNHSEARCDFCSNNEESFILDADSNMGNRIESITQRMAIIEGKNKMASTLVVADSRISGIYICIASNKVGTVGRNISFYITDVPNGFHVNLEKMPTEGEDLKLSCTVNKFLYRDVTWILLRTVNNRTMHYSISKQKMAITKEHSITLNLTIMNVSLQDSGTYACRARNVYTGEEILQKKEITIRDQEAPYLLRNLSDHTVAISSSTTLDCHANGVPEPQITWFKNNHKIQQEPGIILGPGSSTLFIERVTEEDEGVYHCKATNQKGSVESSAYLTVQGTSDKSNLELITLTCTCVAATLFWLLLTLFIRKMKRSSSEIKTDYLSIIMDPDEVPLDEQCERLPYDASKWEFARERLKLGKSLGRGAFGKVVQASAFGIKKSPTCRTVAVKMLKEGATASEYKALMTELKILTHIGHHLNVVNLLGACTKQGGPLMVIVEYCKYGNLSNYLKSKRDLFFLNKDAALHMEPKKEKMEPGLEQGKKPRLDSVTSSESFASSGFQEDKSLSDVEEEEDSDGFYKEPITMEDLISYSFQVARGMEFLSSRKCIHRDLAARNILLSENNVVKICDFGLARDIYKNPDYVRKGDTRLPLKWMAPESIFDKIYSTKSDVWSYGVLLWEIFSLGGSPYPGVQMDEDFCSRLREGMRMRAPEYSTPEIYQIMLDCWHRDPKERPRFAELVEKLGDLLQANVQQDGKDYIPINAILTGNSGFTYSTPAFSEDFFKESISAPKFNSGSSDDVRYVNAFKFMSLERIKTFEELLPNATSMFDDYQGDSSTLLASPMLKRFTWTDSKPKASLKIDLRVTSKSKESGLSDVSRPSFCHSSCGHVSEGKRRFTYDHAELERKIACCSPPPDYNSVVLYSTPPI
Chain of STK33 (Q9BYT3 whole entry): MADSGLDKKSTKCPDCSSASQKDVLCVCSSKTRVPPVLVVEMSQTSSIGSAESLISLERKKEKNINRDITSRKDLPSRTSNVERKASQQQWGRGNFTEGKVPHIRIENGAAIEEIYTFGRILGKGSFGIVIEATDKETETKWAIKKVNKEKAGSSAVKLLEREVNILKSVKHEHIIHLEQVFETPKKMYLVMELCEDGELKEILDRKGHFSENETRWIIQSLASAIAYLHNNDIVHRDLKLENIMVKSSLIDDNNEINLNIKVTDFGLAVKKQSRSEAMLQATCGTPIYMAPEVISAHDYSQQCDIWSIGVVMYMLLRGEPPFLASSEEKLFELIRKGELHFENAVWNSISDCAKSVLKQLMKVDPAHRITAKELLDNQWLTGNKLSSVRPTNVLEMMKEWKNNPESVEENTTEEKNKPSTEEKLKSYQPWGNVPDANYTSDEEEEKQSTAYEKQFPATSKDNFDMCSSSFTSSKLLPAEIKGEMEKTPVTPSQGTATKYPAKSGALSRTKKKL
Chain of HASPIN (Q8TF76 whole entry): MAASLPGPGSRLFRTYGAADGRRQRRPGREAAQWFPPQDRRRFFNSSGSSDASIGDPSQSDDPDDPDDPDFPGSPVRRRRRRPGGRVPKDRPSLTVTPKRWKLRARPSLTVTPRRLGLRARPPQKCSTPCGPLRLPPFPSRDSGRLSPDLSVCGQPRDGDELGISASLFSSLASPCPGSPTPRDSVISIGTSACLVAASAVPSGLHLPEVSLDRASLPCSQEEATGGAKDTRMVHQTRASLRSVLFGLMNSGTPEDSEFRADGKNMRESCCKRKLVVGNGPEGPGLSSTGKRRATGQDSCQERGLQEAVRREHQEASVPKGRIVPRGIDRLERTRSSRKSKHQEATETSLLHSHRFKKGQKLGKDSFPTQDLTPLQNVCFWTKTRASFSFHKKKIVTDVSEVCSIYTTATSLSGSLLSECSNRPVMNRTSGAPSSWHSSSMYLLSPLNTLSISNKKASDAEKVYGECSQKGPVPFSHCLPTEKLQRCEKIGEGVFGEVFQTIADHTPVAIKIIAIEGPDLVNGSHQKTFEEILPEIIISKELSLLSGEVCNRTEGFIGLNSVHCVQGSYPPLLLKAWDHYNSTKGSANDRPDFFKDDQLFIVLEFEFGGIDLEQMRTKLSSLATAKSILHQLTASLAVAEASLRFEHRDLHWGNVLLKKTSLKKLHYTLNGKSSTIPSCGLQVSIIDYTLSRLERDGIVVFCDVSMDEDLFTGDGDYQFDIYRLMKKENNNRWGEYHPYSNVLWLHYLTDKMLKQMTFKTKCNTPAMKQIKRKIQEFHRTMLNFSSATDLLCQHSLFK
Chain of EGFR(S752-I759del) (P00533 other isoform, or with tags, fused parts or gaps del 1-668/del 752-759/del 1012-1210 limits assumed): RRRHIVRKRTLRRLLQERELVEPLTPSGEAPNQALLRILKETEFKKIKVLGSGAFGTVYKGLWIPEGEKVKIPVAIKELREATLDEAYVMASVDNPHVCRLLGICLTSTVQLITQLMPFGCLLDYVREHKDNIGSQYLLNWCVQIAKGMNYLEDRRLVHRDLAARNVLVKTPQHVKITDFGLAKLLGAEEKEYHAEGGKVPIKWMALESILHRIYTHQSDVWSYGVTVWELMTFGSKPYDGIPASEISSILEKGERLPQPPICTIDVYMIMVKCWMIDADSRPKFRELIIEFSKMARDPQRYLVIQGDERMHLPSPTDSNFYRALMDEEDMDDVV

CCN1CCN(Cc2ccc(Nc3nc4ccc(Oc5ccnc(NC(C)=O)c5)cc4n3C)cc2C(F)(F)F)CC1 [Compound I-2] gave a pIC50 [1] of 6.10, a remaining binding at 1 µM [2] of 81% and a remaining binding at 1 µM [3] of 78%. For the same compound, the remaining binding at 1 µM [4] was 40%, the remaining binding at 1 µM [5] was 6.3% and the remaining binding at 1 µM [6] was 37%. The remaining binding at 1 µM [7] was 59%, the remaining binding at 1 µM [8] was 100% and the remaining binding at 1 µM [9] was 93%. The remaining binding at 1 µM [10] was 0%, the remaining binding at 1 µM [11] was 76% and the remaining binding at 1 µM [12] was 67%. For the same compound, the remaining binding at 1 µM [13] was 92%, the remaining binding at 1 µM [14] was 76% and the remaining binding at 1 µM [15] was 93%. For the same compound, the percent control [16] was 24%, the remaining binding at 1 µM [17] was 100% and the remaining binding at 1 µM [18] was 100%. It also gave a remaining binding at 1 µM [19] of 82%, a remaining binding at 1 µM [20] of 79% and a remaining binding at 1 µM [21] of 80%. It also gave a remaining binding at 1 µM [22] of 100%, a remaining binding at 1 µM [23] of 62% and a remaining binding at 1 µM [24] of 85%. For the same compound, the percent control [25] was 34%, the remaining binding at 1 µM [26] was 82% and the remaining binding at 1 µM [27] was 0.1%. The remaining binding at 1 µM [28] was 87%, the remaining binding at 1 µM [29] was 100% and the remaining binding at 1 µM [30] was 88%. The remaining binding at 1 µM [31] was 100%, the remaining binding at 1 µM [32] was 94% and the remaining binding at 1 µM [33] was 36%. It also gave a remaining binding at 1 µM [34] of 96%, a remaining binding at 1 µM [35] of 100% and a remaining binding at 1 µM [36] of 32%. It also gave a remaining binding at 1 µM [37] of 73%, a remaining binding at 1 µM [38] of 100% and a remaining binding at 1 µM [39] of 90%. It also gave a remaining binding at 1 µM [40] of 80%.

CCN1CCN(Cc2ccc(Nc3nc4ccc(Oc5ccnc(NC(C)=O)c5)c(C)c4n3C)cc2C(F)(F)F)CC1 [Compound I-6, N-(4-(2-(4-((4-ethylpiperazin-1-yl)methyl)-3-(trifluoromethyl)phenylamino)-1,7-dimethyl-1H-benzo[d]imidazol-6-yloxy)pyridin-2-yl)acetamide] gave a pIC50 [1] of 6.01, a remaining binding at 1 µM [2] of 100% and a remaining binding at 1 µM [3] of 51%. It also gave a remaining binding at 1 µM [4] of 91%, a remaining binding at 1 µM [5] of 4.2% and a remaining binding at 1 µM [6] of 7.4%. For the same compound, the remaining binding at 1 µM [7] was 3.8%, the remaining binding at 1 µM [8] was 99% and the remaining binding at 1 µM [9] was 86%. For the same compound, the remaining binding at 1 µM [10] was 0.05%, the remaining binding at 1 µM [11] was 100% and the remaining binding at 1 µM [12] was 97%. The remaining binding at 1 µM [13] was 100%, the remaining binding at 1 µM [14] was 66% and the remaining binding at 1 µM [15] was 82%. It also gave a percent control [16] of 11%, a remaining binding at 1 µM [17] of 93% and a remaining binding at 1 µM [18] of 86%. It also gave a remaining binding at 1 µM [19] of 85%, a remaining binding at 1 µM [20] of 100% and a remaining binding at 1 µM [21] of 97%. For the same compound, the remaining binding at 1 µM [22] was 100%, the remaining binding at 1 µM [23] was 97% and the remaining binding at 1 µM [24] was 93%. The percent control [25] was 46%, the remaining binding at 1 µM [26] was 84% and the remaining binding at 1 µM [27] was 0%. The remaining binding at 1 µM [28] was 89%, the remaining binding at 1 µM [29] was 100% and the remaining binding at 1 µM [30] was 60%. For the same compound, the remaining binding at 1 µM [31] was 91%, the remaining binding at 1 µM [32] was 90% and the remaining binding at 1 µM [33] was 1.4%. The remaining binding at 1 µM [34] was 90%, the remaining binding at 1 µM [35] was 82% and the remaining binding at 1 µM [36] was 59%. The remaining binding at 1 µM [37] was 43%, the remaining binding at 1 µM [38] was 94% and the remaining binding at 1 µM [39] was 91%. It also gave a remaining binding at 1 µM [40] of 94%.
